Results from PubChem BioAssay AID248 (DTP/NCI, 2004).
Where “and” joins values, the source holds several entries; their conditions need not be identical. Equal entries are not always repeated. Inconclusive results and toxic doses are left out. No stated cut-off is given here; in the data, active means T/C of 150% or more; inactive means T/C below 125%.

Tested on: L1210 leukemia ip in BDF1 mice, survival T/C
Assay: NCI In Vivo Anticancer Drug Screen. Data for tumor model L1210 Leukemia (intraperitoneal) in B6D2F1 (BDF1) mice
Conditions: endpoint: mean survival time, higher = longer survival
Outline: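 Survival endpoint. Drug-treated group vs vehicle group, expressed as T divided by C. Tumor passaged by transplantation.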

Measured: T/C

CC[C@@]1(O)C(=O)OCc2c1cc1n(c2=O)Cc2cc3ccccc3nc2-1
116 % of control and 202 % of control: dose: 2.5 mg/kg/injection, schedule: Q01DX001 (ip), vehicle: saline
inactive: dose: 0.05 mg/kg/injection, schedule: Q01DX Z (ip), vehicle: carboxymethylcellulose (CMC) 94 % of control | dose: 0.1 mg/kg/injection, schedule: Q01DX Z (ip), vehicle: carboxymethylcellulose (CMC) 97 % of control | dose: 0.12 mg/kg/injection, schedule: Q01DX009 (ip), vehicle: saline 105 % of control and 108 % of control | dose: 0.12 mg/kg/injection, schedule: Q#A X Z (ip), vehicle: saline 122 % of control | dose: 0.13 mg/kg/injection, schedule: Q01DX Z (ip), vehicle: water 105 % of control | dose: 0.2 mg/kg/injection, schedule: Q01DX Z (ip), vehicle: saline 118 % of control | dose: 0.22 mg/kg/injection, schedule: Q01DX Z (ip), vehicle: water 103 % of control | dose: 0.22 mg/kg/injection, schedule: Q03DX Z (ip), vehicle: saline 103 % of control | dose: 0.25 mg/kg/injection, schedule: Q01DX006 (iv), vehicle: saline 103 % of control | dose: 0.25 mg/kg/injection, schedule: Q01DX009 (ip), vehicle: saline 94 % of control | dose: 0.25 mg/kg/injection, schedule: Q01DX Z (im), vehicle: saline 108 % of control | dose: 0.25 mg/kg/injection, schedule: Q01DX Z (sc), vehicle: saline 113 % of control | dose: 0.25 mg/kg/injection, schedule: Q## X Z (ip), vehicle: saline 106 % of control | dose: 0.33 mg/kg/injection, schedule: Q03DX Z (ip), vehicle: saline 111 % of control | dose: 0.36 mg/kg/injection, schedule: Q01DX Z (ip), vehicle: water 116 % of control | dose: 0.5 mg/kg/injection, schedule: Q01DX001 (ip), vehicle: saline 107 % of control | dose: 0.5 mg/kg/injection, schedule: Q01DX006 (iv), vehicle: saline 116 % of control | dose: 0.5 mg/kg/injection, schedule: Q01DX009 (ip), vehicle: saline 111 % of control | dose: 0.5 mg/kg/injection, schedule: Q01DX Z (oral), vehicle: saline 120 % of control | dose: 0.5 mg/kg/injection, schedule: Q01DX Z (sc), vehicle: saline 118 % of control | dose: 0.5 mg/kg/injection, schedule: Q03DX Z (ip), vehicle: saline 108 % of control | dose: 0.75 mg/kg/injection, schedule: Q01DX009 (ip), vehicle: saline 94 % of control and 95 % of control | dose: 0.75 mg/kg/injection, schedule: Q03DX Z (ip), vehicle: saline 114 % of control | dose: 1.0 mg/kg/injection, schedule: Q01DX001 (ip), vehicle: saline 107 % of control | dose: 1.0 mg/kg/injection, schedule: Q01DX006 (iv), vehicle: saline 114 % of control | dose: 1.0 mg/kg/injection, schedule: Q01DX009 (ip), vehicle: saline 97 % of control | dose: 1.0 mg/kg/injection, schedule: Q01DX010 (iv), vehicle: saline 117 % of control | dose: 1.0 mg/kg/injection, schedule: Q01DX Z (oral), vehicle: saline 109 % of control | dose: 1.25 mg/kg/injection, schedule: Q04DX003 (ip), vehicle: Klucel (hydroxypropylcellulose) (HPC) 113 % of control | dose: 1.5 mg/kg/injection, schedule: Q03DX Z (ip), vehicle: saline 120 % of control | dose: 1.5 mg/kg/injection, schedule: Q#A X Z (ip), vehicle: saline 104 % of control | dose: 2.0 mg/kg/injection, schedule: Q01DX001 (ip), vehicle: saline 100 % of control and 124 % of control | dose: 2.0 mg/kg/injection, schedule: Q01DX006 (iv), vehicle: saline 109 % of control | dose: 2.0 mg/kg/injection, schedule: Q01DX010 (ip), vehicle: saline 93 % of control | dose: 2.0 mg/kg/injection, schedule: Q01DX Z (im), vehicle: saline 94 % of control and 118 % of control | dose: 2.0 mg/kg/injection, schedule: Q01DX Z (ip), vehicle: saline 122 % of control | dose: 2.0 mg/kg/injection, schedule: Q01DX Z (oral), vehicle: saline 120 % of control | dose: 2.0 mg/kg/injection, schedule: Q07DX Z (ip), vehicle: saline 124 % of control | dose: 2.0 mg/kg/injection, schedule: Q## X Z (ip), vehicle: saline 98 % of control | dose: 2.25 mg/kg/injection, schedule: Q#A X Z (ip), vehicle: saline 93 % of control | dose: 3.0 mg/kg/injection, schedule: Q01DX006 (iv), vehicle: saline 120 % of control | dose: 3.0 mg/kg/injection, schedule: Q01DX Z (oral), vehicle: saline 120 % of control | dose: 3.2 mg/kg/injection, schedule: Q01DX Z (ip), vehicle: saline 121 % of control | dose: 4.0 mg/kg/injection, schedule: Q01DX001 (ip), vehicle: saline 105 % of control | dose: 4.0 mg/kg/injection, schedule: Q01DX010 (iv), vehicle: saline 108 % of control | dose: 4.0 mg/kg/injection, schedule: Q01DX Z (ip), vehicle: saline 97 % of control | dose: 4.0 mg/kg/injection, schedule: Q01DX Z (oral), vehicle: saline 118 % of control and 119 % of control | dose: 4.5 mg/kg/injection, schedule: Q01DX006 (iv), vehicle: saline 122 % of control | dose: 4.5 mg/kg/injection, schedule: Q01DX Z (im), vehicle: saline 117 % of control | dose: 4.8 mg/kg/injection, schedule: Q01DX Z (ip), vehicle: saline 95 % of control | dose: 5.0 mg/kg/injection, schedule: Q04DX003 (ip), vehicle: Klucel (hydroxypropylcellulose) (HPC) 96 % of control | dose: 8.0 mg/kg/injection, schedule: Q01DX001 (ip), vehicle: saline 109 % of control | dose: 10.0 mg/kg/injection, schedule: Q04DX003 (ip), vehicle: Klucel (hydroxypropylcellulose) (HPC) 110 % of control | dose: 13.0 mg/kg/injection, schedule: Q03DX Z (ip), vehicle: saline 124 % of control | dose: 19.0 mg/kg/injection, schedule: Q03DX Z (ip), vehicle: saline 93 % of control | dose: 20.0 mg/kg/injection, schedule: Q04DX003 (ip), vehicle: Klucel (hydroxypropylcellulose) (HPC) 117 % of control | dose: 24.0 mg/kg/injection, schedule: Q01DX001 (ip), vehicle: saline 111 % of control | dose: 35.0 mg/kg/injection, schedule: Q01DX001 (ip), vehicle: saline 122 % of control | dose: 50.0 mg/kg/injection, schedule: Q07DX Z (ip), vehicle: saline 100 % of control | dose: 125.0 micrograms/kg/injection, schedule: Q01DX001 (ip), vehicle: saline 103 % of control | dose: 125.0 micrograms/kg/injection, schedule: Q01DX Z (ip), vehicle: saline 107 % of control | dose: 156.0 micrograms/kg/injection, schedule: Q01DX001 (ip), vehicle: saline 107 % of control | dose: 187.0 micrograms/kg/injection, schedule: Q01DX001 (ip), vehicle: saline 103 % of control | dose: 250.0 micrograms/kg/injection, schedule: Q01DX Z (ip), vehicle: saline 101 % of control | dose: 281.0 micrograms/kg/injection, schedule: Q01DX001 (ip), vehicle: saline 105 % of control | dose: 310.0 micrograms/kg/injection, schedule: Q01DX001 (ip), vehicle: saline 101 % of control | dose: 421.0 micrograms/kg/injection, schedule: Q01DX001 (ip), vehicle: saline 116 % of control | dose: 500.0 micrograms/kg/injection, schedule: Q01DX Z (ip), vehicle: saline 107 % of control | dose: 620.0 micrograms/kg/injection, schedule: Q01DX001 (ip), vehicle: saline 107 % of control | dose: 1250.0 micrograms/kg/injection, schedule: Q01DX001 (ip), vehicle: saline 110 % of control
active: dose: 0.25 mg/kg/injection, schedule: Q#A X Z (ip), vehicle: saline 154 % of control | dose: 0.5 mg/kg/injection, schedule: Q01DX Z (ip), vehicle: carboxymethylcellulose (CMC) 163 % of control | dose: 0.6 mg/kg/injection, schedule: Q01DX Z (ip), vehicle: water 156 % of control | dose: 1.0 mg/kg/injection, schedule: Q01DX010 (ip), vehicle: saline 153 % of control | dose: 1.0 mg/kg/injection, schedule: Q01DX Z (ip), vehicle: carboxymethylcellulose (CMC) 166 % of control | dose: 1.0 mg/kg/injection, schedule: Q01DX Z (ip), vehicle: saline 158 % of control | dose: 1.0 mg/kg/injection, schedule: Q01DX Z (ip), vehicle: water 171 % of control | dose: 1.0 mg/kg/injection, schedule: Q#A X Z (ip), vehicle: saline 185 % of control | dose: 1.6 mg/kg/injection, schedule: Q01DX Z (ip), vehicle: saline 196 % of control | dose: 3.0 mg/kg/injection, schedule: Q03DX Z (ip), vehicle: saline 155 % of control | dose: 4.5 mg/kg/injection, schedule: Q01DX Z (sc), vehicle: saline 175 % of control | dose: 6.0 mg/kg/injection, schedule: Q03DX Z (ip), vehicle: saline 152 % of control | dose: 6.5 mg/kg/injection, schedule: Q01DX006 (iv), vehicle: saline 170 % of control | dose: 6.5 mg/kg/injection, schedule: Q01DX Z (sc), vehicle: saline 157 % of control | dose: 8.6 mg/kg/injection, schedule: Q03DX Z (ip), vehicle: saline 194 % of control | dose: 9.5 mg/kg/injection, schedule: Q01DX006 (iv), vehicle: saline 157 % of control | dose: 16.0 mg/kg/injection, schedule: Q07DX Z (ip), vehicle: saline 158 % of control and 213 % of control | dose: 24.0 mg/kg/injection, schedule: Q07DX Z (ip), vehicle: saline 158 % of control | dose: 2000.0 micrograms/kg/injection, schedule: Q01DX Z (ip), vehicle: saline 222 % of control | dose: 4000.0 micrograms/kg/injection, schedule: Q01DX Z (ip), vehicle: saline 205 % of control
